Measurements published in patent US8389524B2, “Tricyclic nitrogen containing compounds as antibacterial agents” (Glaxo Group Limited, priority 2007, dated 2013).
Where a name gives a salt, the structure may show the parent alone.

Each compound was assayed on Mycobacterium tuberculosis H37Rv (assay: Mycobacterium tuberculosis H37Rv Inhibition Assay (resazurin, MIC)). Details: ATCC 25618 / H37Rv, 144 h, H37Rv strain (ATCC25618), Middlebrook 7H9+ADC, six days at 37° C., resazurin fluorescence after 48 hours, read-out: MIC value.
Assay type: cell-based

Row | SMILES | MIC [mg/L]
1 | O=c1ccc2ccc(=O)n3c2n1C[C@H]3CN1CCC(NCc2cc(F)c3c(c2)OCCO3)CC1 [Example 31, (1R)-1-[(4-{[(8-Fluoro-2,3-dihydro-1,4-benzodioxin-6-yl)methyl]amino}-1-piperidinyl)methyl]-1,2-dihydro-4H,9H-imidazo[1,2,3-ij]-1,8-naphthyridine-4,9-dione hydrochloride] | < 2
2 | CC1(NCc2cc3c(cn2)OCCS3)CCN(C[C@@H]2Cn3c(=O)ccc4ccc(=O)n2c43)CC1 [Example 23, (1R)-1-({4-[(2,3-Dihydro[1,4]oxathiino[2,3-c]pyridin-7-ylmethyl)amino]-4-methyl-1-piperidinyl}methyl)-1,2-dihydro-4H,9H-imidazo[1,2,3-ij]-1,8-naphthyridine-4,9-dione hydrochloride] | < 2
3 | O=c1ccc2ccc(=O)n3c2n1C[C@H]3CN1CCC(NCc2ccc3c(c2)OCCO3)CC1 [Example 30, (1R)-1-({4-[(2,3-Dihydro-1,4-benzodioxin-6-ylmethyl)amino]-1-piperidinyl}methyl)-1,2-dihydro-4H,9H-imidazo[1,2,3-ij]-1,8-naphthyridine-4,9-dione hydrochloride] | < 2
4 | O=C1CSc2cc(Br)c(CNC3CCN(CC4Cn5c(=O)ccc6ccc(=O)n4c65)CC3)nc2N1 (stereo not shown) [Example 4, 1-({4-[(7-Bromo-3-oxo-3,4-Dihydro-2H-pyrido[3,2-b][1,4]thiazin-6-yl-methyl)amino-1-piperidinyl}methyl)1,2-dihydro-4H,9H-imidazo[1,2,3-ij]-1,8-naphthyridine-4,9-dione hydrochloride] | < 2

Same assay, conditions: ATCC 25618 / H37Rv, 144 h, read-out: MIC value, H37Rv strain (ATCC25618), Middlebrook 7H9+ADC, six days at 37° C., resazurin fluorescence after 48 hours

Row | SMILES | MIC [mg/L]
5 | O=c1ccc2ncc(=O)n3c2n1C[C@H]3CN1CCC(NCc2cc3c(cn2)OCS3)CC1 [Example 16A, (2R)-2-({4-[([1,3]Oxathiolo[5,4-c]pyridin-6-ylmethyl)amino]-1-piperidinyl}methyl)-1,2-dihydro-3H,8H-2a,5,8a-triazaacenaphthylene-3,8-dione hydrochloride] | < 2
6 | O=c1ccc2ccc(=O)n3c2n1C[C@H]3CN1CCC(NCc2cc3c(cn2)OCS3)CC1 [Example 5A, (1R)-1-({4-[([1,3]Oxathiolo[5,4-c]pyridin-6-ylmethyl)amino]-1-piperidinyl}methyl)-1,2-dihydro-4H,9H-imidazo[1,2,3-ij]-1,8-naphthyridine-4,9-dione hydrochloride] | < 2
7 | O=c1ccc2ccc(=O)n3c2n1C[C@H]3CN1CCC(NCc2cc3c(cn2)OCCS3)CC1 [Example 6A, (1R)-1-({4-[(2,3-Dihydro[1,4]oxathiino[2,3-c]pyridin-7-ylmethyl)amino]-1-piperidinyl}methyl)-1,2-dihydro-4H,9H-imidazo[1,2,3-ij]-1,8-naphthyridine-4,9-dione hydrochloride] | < 2
8 | O=c1ccc2ccc(=O)n3c2n1C[C@H]3CN1CCC(NCc2ccc3c(c2)OCCC3)CC1 [Example 50, (1R)-1-({4-[(3,4-Dihydro-2H-chromen-7-ylmethyl)amino]-1-piperidinyl}methyl)-1,2-dihydro-4H,9H-imidazo[1,2,3-ij]-1,8-naphthyridine-4,9-dione hydrochloride] | < 2
9 | O=c1ccc2ccc(=O)n3c2n1C[C@H]3CN1CCC(NCc2cc3c(cn2)CCC3)CC1 [Example 8, (1R)-1-({4-[(6,7-Dihydro-5H-cyclopenta[c]pyridin-3-ylmethyl)amino]-1-piperidinyl}methyl)-1,2-dihydro-4H,9H-imidazo[1,2,3-ij]-1,8-naphthyridine-4,9-dione hydrochloride] | < 2
10 | O=c1ccc2ncc(=O)n3c2n1C[C@H]3CN1CCC(NCc2ccc3c(c2)OCCO3)CC1 [Example 40, (2R)-2-({4-[(2,3-Dihydro-1,4-benzodioxin-6-ylmethyl)amino]-1-piperidinyl}methyl)-1,2-dihydro-3H,8H-2a,5,8a-triazaacenaphthylene-3,8-dione hydrochloride] | < 2
11 | O=c1cnc2ccc(=O)n3c2n1C[C@H]3CN1CCC(NCc2ccc3c(c2)OCCO3)CC1 [Example 44, (1R)-1-({4-[(2,3-Dihydro-1,4-benzodioxin-6-ylmethyl)amino]-1-piperidinyl}methyl)-1,2-dihydro-3H,8H-2a,5,8a-triazaacenaphthylene-3,8-dione hydrochloride] | < 2
12 | O=c1ccc2ccc(=O)n3c2n1C[C@H]3CN1CCC(NCc2nc3cccc(F)c3[nH]2)CC1 [Example 46, (1R)-1-[(4-{[(4-Fluoro-1H-benzimidazol-2-yl)methyl]amino}-1-piperidinyl)methyl]-1,2-dihydro-4H,9H-imidazo[1,2,3-ij]-1,8-naphthyridine-4,9-dione dihydrochloride] | < 2
13 | O=c1cnc2ccc(=O)n3c2n1C[C@H]3CN1CCC(NCc2cc3c(cn2)OCCS3)CC1 [Example 14, (1R)-1-({4-[(2,3-Dihydro-[1,4]oxathiino[2,3-c]pyridin-7-ylmethyl)amino]-1-piperidinyl}methyl)-1,2-dihydro-3H,8H-2a,5,8a-triazaacenaphthylene-3,8-dione hydrochloride] | < 2
14 | O=c1ccc2ccc(=O)n3c2n1C[C@H]3CN1CCC(NCc2cc3c(cn2)CCCC3)CC1 [Example 7, (1R)-1-({4-[(5,6,7,8-Tetrahydro-3-isoquinolinylmethyl)amino]-1-piperidinyl}methyl)-1,2-dihydro-4H,9H-imidazo[1,2,3-ij]-1,8-naphthyridine-4,9-dione hydrochloride] | < 2
15 | O=c1cnc2ccc(=O)n3c2n1C[C@H]3CN1CCC(NCc2cc3c(cn2)OCS3)CC1 [Example 13A, (1R)-1-({4-[([1,3]Oxathiolo[5,4-c]pyridin-6-ylmethyl)amino]-1-piperidinyl}methyl)-1,2-dihydro-3H,8H-2a,5,8a-triazaacenaphthylene-3,8-dione hydrochloride] | < 2
16 | N#Cc1cc(CNC2CCN(C[C@@H]3Cn4c(=O)cnc5ccc(=O)n3c54)CC2)cc2c1OCCO2 [Example 56, 7-{[(1-{[(1R)-3,8-Dioxo-1,2-dihydro-3H,8H-2a,5,8a-triazaacenaphthylen-1-yl]methyl}-4-piperidinyl)amino]methyl}-2,3-dihydro-1,4-benzodioxin-5-carbonitrile hydrochloride] | < 2
17 | O=c1ccc2ccc(=O)n3c2n1CC3CN1CCC(NCc2cc3c(cn2)OCS3)CC1 (stereo not shown) [Example 2, 1-({4-[([1,3]Oxathiolo[5,4-c]pyridin-6-ylmethyl)amino]-1-piperidinyl}methyl)-1,2-dihydro-4H,9H-imidazo[1,2,3-ij]-1,8-naphthyridine-4,9-dione hydrochloride] | < 2
18 | O=c1ccc2ncc(=O)n3c2n1CC3CN1CCC(NCc2cc3c(cn2)OCCS3)CC1 (racemic) [Example 20, 2-({4-[(2,3-Dihydro[1,4]oxathiino[2,3-c]pyridin-7-ylmethyl)amino]-1-piperidinyl}methyl)-1,2-dihydro-3H,8H-2a,5,8a-triazaacenaphthylene-3,8-dione hydrochloride] | < 2
19 | O=c1cnc2ccc(=O)n3c2n1C[C@H]3CN1CCC(NCc2cc3c(cn2)OCCC3)CC1 [Example 37, (1R)-1-({4-[(3,4-Dihydro-2H-pyrano[2,3-c]pyridin-6-ylmethyl)amino]-1-piperidinyl}methyl)-1,2-dihydro-3H,8H-2a,5,8a-triazaacenaphthylene-3,8-dione hydrochloride] | < 2
